No end group written: not given here.
Key:
[1] = tested on: experimental myocardial ischemia-reperfusion; conditions: by attenuating neutrophil migration; cited from earlier work
[2] = tested on: splanchnic artery occlusion and reperfusion injury; conditions: by affecting neutrophil migration; cited from earlier work
rat model of CPB/CA = assay: Early renal biomarker GST-μ in rat urine, preclinical model of CPB/CA; type: in vivo; conditions: setting of myocardial ischemia/reperfusion, n=3, vs vehicle
Source text: FIG. 5. […] Values presented are means±SD; n=3; *p<0.05 vs. Vehicle.
(§1) NGAL positive staining was abundant in ANXA1sp treated animals and mainly located in the proximal tubule cells (FIG. 3C).

rat model of CPB/DHCA = assay: Preclinical rat model of CPB/DHCA, cardiac-surgery associated AKI (Example I, i.p.); type: in vivo
Protocol: FIGS. 1A-B. ANXA1 short peptide (ANXA1sp) treatment ameliorates proximal tubular apoptosis and inhibits the activity of caspase-3 induced by ischemia-reperfusion injury following deep hypothermia circulatory arrest (DHCA). Quantification of apoptosis was determined by terminal deoxynucleotidyl transferase dUTP nick end labeling (TUNEL) staining (A) and the activity of caspase-3 analyzed by Western blot (B) at 24 h after DHCA in rats either treated with ANXA1sp or 0.1% DMSO (vehicle) i.p. Results are shown as mean±SD of six animals in each group. *p<0.002.
FIGS. 2A-B. Effect of treatment of ANXA1sp after ischemia-reperfusion injury on cell apoptosis and cell proliferation. (A) Treatment with ANXA1sp inhibits apoptosis (TUNEL staining) and enhances proliferation (PCNA staining) induced by ischemia-reperfusion injury following deep hypothermia circulatory arrest (DHCA). Representative sections from 24 hrs after DHCA in rats treated with either ANXA1sp or 0.1% DMSO (vehicle) (original magnification 300×). (B) ANXA1sp tilts the balance of proximal tubular cell fate toward survival after ischemia-reperfusion injury. A ratio of proliferation/apoptosis (TUNEL) was calculated in proximal tubules 24 hrs after DHCA in rats treated with either ANXA1sp or 0.1% DMSO (vehicle). Results were shown as mean±SD of six rats in each group. *p<0.005 versus vehicle.
FIGS. 3A-C. (A) Protein levels of neutrophil gelatinase associated lipocalin (NGAL) analyzed by Western blot in the kidney 24 hrs after reperfusion following cardiopulmonary bypass (CPB) and deep hypothermic circulatory arrest (DHCA) in vehicle treated animals (Vehicle) versus ANXA1sp treated animals (ANXA1sp). Results are shown as mean±SD. (n=6). *p<0.01 vs. Vehicle. (B) Effect of ANXA1sp on renal NGAL protein levels. Results are representative of six independent experiments in each group. (C) The location of NGAL protein detected by immunohistochemistry in the kidney 24 hrs after reperfusion following DHCA in vehicle treated animals (Vehicle) versus ANXA1sp treated animals (ANXA1sp). NGAL protein was visualized with the NGAL antibody. NGAL positive staining was abundant in ANXA1sp treated animals and mainly located in the proximal tubule cells (red color) (original magnification 200×).
FIG. 4. ANXA1sp treatment represses the renal levels of TNF-α induced by ischemia-reperfusion injury following deep hypothermia circulatory arrest (DHCA) analyzed by ELISA in the kidney 24 hrs after reperfusion in rats either treated with ANXA1sp (open bar, n=6) or vehicle (0.1% DMSO) i.p. (filled bar, n=6). Results are expressed as mean value±SD; *p<0.05 vs. Vehicle.
as §1

[3] = tested on: myocardial ischemia-reperfusion; conditions: several in vitro and in vivo preclinical models; cited from earlier work
[4] = tested on: Male Sprague-Dawley rats, CPB/DHCA; assay: Rat CPB/DHCA, ANXA1sp 2 mg/kg i.v. (Example II); type: in vivo
Protocol: Male Sprague-Dawley rats were prepared for 60 min of DHCA at 18° C. and received either vehicle or ANXA1 sp (2 mg/kg) i.v. at one hour before CPB and one hour after reperfusion. Renal tissue and serum samples were harvested at 3 (n=5), 6 (n=3), and 24 hours (n=3) i.v. after CPB/DHCA. The time course of renal activity of NF-kappa B was determined by a rat specific ELISA kit. Changes of renal and serum levels of the proinflammatory cytokines tumor necrosis factor-alpha (TNF-α) and interleukin (IL)-6 as well as myeloperoxidase (MPO) were measured by ELISA. Changes of renal levels of activated caspase-3 were determined by Western blot. At 24 hours after DHCA, apoptotic proximal tubular cells was identified by TUNEL and quantified by counting the numbers of apoptotic proximal tubular cells in 5 representative renal areas.

myocardial I/R injury = conditions: cited from earlier work
[5] = 6 and 24 h after DHCA, vs vehicle

## Ac-Ala-Met-Val-Ser-Glu-Phe-Leu-Lys-Gln-Ala-Trp Phe-Ile-Glu-Asn-Glu-Glu-Gln-Glu-Tyr-Val-Gln-Thr-Val-Lys (Ac-AMVSEFLKQAWFIENEEQEYVQTVK) [Ac2-26]
[1]
  protection against experimental myocardial ischemia-reperfusion: protects
[2]
  protection against splanchnic artery occlusion and reperfusion injury: protects

## Ac-Gln-Ala-Trp [ANXA1sp]
Rat model of CPB/CA
  expression of GST-μ in rat urine: significantly reduced expression
Rat model of CPB/DHCA; 24 h after DHCA, i.p., vs vehicle, n=6
  numbers of proximal tubular cells (apoptosis, TUNEL staining): reduced numbers
Rat model of CPB/DHCA; 24 hrs after DHCA, vs vehicle
  tubule cell proliferation (PCNA staining): enhanced
Rat model of CPB/DHCA; 24 hrs after reperfusion following CPB and DHCA, vs vehicle
  expression of NGAL in the kidney (Western blot): significantly higher expression
Rat model of CPB/DHCA; 24 hrs after reperfusion, i.p., vs vehicle
  levels of TNF-α protein in the kidney (ELISA): significantly lower levels
Rat model of CPB/DHCA; kidney, 24 h after DHCA, i.p., vs vehicle
  activity of caspase-3 (Western blot): lower activity
Rat model of CPB/DHCA; kidney, 24 hrs after reperfusion, mainly located in proximal tubule cells
  NGAL positive staining (immunohistochemistry): abundant
Rat model of CPB/DHCA; proximal tubules, 24 hrs after DHCA, vs vehicle
  balance of proximal tubular cell fate (ratio of proliferation/apoptosis): tilted the balance of proximal tubular cell fate toward survival
Rat model of CPB/DHCA; rat CPB/DHCA, vs vehicle (0.1% DMSO)
  cardiac-surgery associated acute kidney injury (AKI): significantly attenuates
[3]
  cardioprotective efficacy: robust cardioprotective efficacy
[4]
  AKI following CPB/DHCA: attenuates
[4]; 3 and 6 hours after DHCA, vs vehicle
  renal activity of NF-kappa B (ELISA): significant inhibition
[4]; [5]
  renal levels of IL-6 (ELISA): significantly suppressed
  renal levels of MPO (ELISA): significantly suppressed
[4]; 24 h after DHCA, vs vehicle
  numbers of apoptotic proximal tubular cells (TUNEL): reduced numbers
[4]; 24 hours after DHCA, vs vehicle
  renal levels of TNF-α (ELISA): significantly suppressed
[4]; different time points after DHCA, vs vehicle
  renal activity of caspase-3 (Western blot): significantly decreased
[4]; vs vehicle, data not shown
  release of IL-6 in the serum: significantly reduced release
  release of MPO in the serum: significantly reduced release
  release of TNF-α in the serum: significantly reduced release

B1: ANXA1: 37 kDa protein, member of the annexin superfamily; about 346 amino acids (SEQ ID NO:2) (protein, listed as Homo sapiens)
chain: MAMVSEFLKQAWFIENEEQEYVQTVKSSKGGPGSAVSPYPTFNPSSDVAALHKAIMVKGVDEATIIDILTKRNNAQRQQIKAAYLQETGKPLDETLKKALTGHLEEVVLALLKTPAQFDADELRAAMKGLGTDEDTLIEILASRTNKEIRDINRVYREELKRDLAKDITSDTSGDFRNALLSLAKGDRSEDFGVNEDLADSDARALYEAGERRKGTDVNVFNTILTTRSYPQLRRVFQKYTKYSKHDMNKVLDLELKGDIEKCLTAIVKCATSKPAFFAEKLHQAMKGVGTRHKALIRIMVSRSEIDMNDIKAFYQKMYGISLCQAILDETKGDYEKILVALCGGN
Myocardial I/R injury; myocardial I/R injury
  leukocyte-dependent myocardial damage: reduces
Myocardial I/R injury; rats treated with ANXA1
  numbers of extravasated leukocytes: significantly lower numbers
